A short description of the series: physchem. The protocol:
Solubility of the GIPR peptides may be determined by dissolution in a phosphate buffer followed by quantitation using liquid chromatography, for example, High Performance Liquid Chromatogry (HPLC). An illustrative method is provided. For determination of the solubility of the GIPr agonist peptides, 3 mg of peptides are weighted out in a small glass vial. 100 μL of 200 mM Phosphate buffer pH 7.4 are added and the vial is sonicated/votexed as necessary for a maximum of 1 min. […] If insoluble material is observed in the tube the addition of 100 μL of buffer and mixing is repeated until complete dissolution.
3 mg of peptides are weighted out in a small glass vial. 100 uL of 200 mM Phosphate buffer pH 7.4 are added and the vial is sonicated/votexed as necessary for a maximum of 1 min. […] If insoluble material is observed in the tube the addition of 100 uL of buffer and mixing is repeated until complete dissolution.

The mark [1] stands for this setting: pH 7.4, aqueous buffer, pH 7.4 Phosphate Buffer - Solubility, 200 mM Phosphate buffer pH 7.4.

The text below walks through data of patent US20230143604A1, “QW DOSING OF GIP RECEPTOR AGONIST PEPTIDE COMPOUNDS AND USES THEREOF” (TAKEDA PHARMACEUTICAL COMPANY LIMITED, priority 2020, published 2023).

Starred links: 1 amine or outer side, 2 acyl side, 3 side chain; linkers in the order of their positions; H or OH if unused. Non-standard residues stand in square brackets, D forms with d. Residues, ends and D or L forms follow the SMILES beside them. Groups on a side chain read outwards from the residue. *: point of attachment. C20 diacid = O=C(O)CCCCCCCCCCCCCCCCCCC(=O)*; C18 diacid = O=C(O)CCCCCCCCCCCCCCCCC(=O)*; C17 diacid = O=C(O)CCCCCCCCCCCCCCCC(=O)*; γGlu = O=C(O)[C@H](CCC(=O)[*:2])N[*:1]; NMeY = CN[C@@H](Cc1ccc(O)cc1)C(=O)O; AEEA = NCCOCCOCC(=O)O; Aib = CC(C)(N)C(=O)O A value given as a limit tells only on which side of the number the result lay.

Compound `CC[C@H](C)[C@H](NC(=O)[C@H](CCCNC(=N)N)NC(=O)[C@H](CC(=O)O)NC(=O)[C@H](CCCCNC(=O)COCCOCCNC(=O)COCCOCCNC(=O)CC[C@H](NC(=O)CCCCCCCCCCCCCCCCC(=O)O)C(=O)O)NC(=O)[C@H](C)NC(=O)[C@@H](NC(=O)[C@H](CO)NC(=O)[C@H](Cc1ccc(O)cc1)NC(=O)[C@H](CC(=O)O)NC(=O)[C@H](CO)NC(=O)[C@@H](NC(=O)[C@H](Cc1ccccc1)NC(=O)[C@@H](NC(=O)CNC(=O)[C@H](CCC(=O)O)NC(=O)C(C)(C)NC(=O)[C@H](Cc1ccc(O)cc1)NC)[C@@H](C)O)[C@@H](C)CC)[C@@H](C)CC)C(=O)N[C@@H](C)C(=O)N[C@@H](CCC(N)=O)C(=O)NC(C)(C)C(=O)N[C@@H](CC(N)=O)C(=O)N[C@@H](Cc1ccccc1)C(=O)N[C@H](C(=O)N[C@@H](CC(N)=O)C(=O)N[C@@H](Cc1c[nH]c2ccccc12)C(=O)N[C@@H](CC(C)C)C(=O)N[C@@H](CC(C)C)C(=O)N[C@@H](C)C(=O)N[C@@H](CCC(N)=O)C(=O)N[C@@H](CCCNC(=N)N)C(N)=O)C(C)C` [Compound 252] (H-[NMeY][Aib]EGTFISDYSIAK([AEEA-AEEA-γGlu-C18 diacid])DRIAQ[Aib]NFVNWLLAQR-NH2) came in with a solubility (pH 7.4, aqueous buffer) of no less than 7.3 mg/mL. For the compound `CC[C@H](C)[C@H](NC(=O)[C@H](Cc1ccccc1)NC(=O)[C@@H](NC(=O)CNC(=O)[C@H](CCC(=O)O)NC(=O)C(C)(C)NC(=O)[C@H](Cc1ccc(O)cc1)NC)[C@@H](C)O)C(=O)N[C@@H](CO)C(=O)N[C@@H](CC(=O)O)C(=O)N[C@@H](Cc1ccc(O)cc1)C(=O)N[C@@H](CO)C(=O)N[C@H](C(=O)NC(C)(C)C(=O)N[C@@H](CC(C)C)C(=O)N[C@@H](CC(=O)O)C(=O)N[C@@H](CCCNC(=N)N)C(=O)NC(C)(C)C(=O)N[C@@H](C)C(=O)N[C@@H](CCC(N)=O)C(=O)NC(C)(C)C(=O)N[C@@H](CCCCNC(=O)COCCOCCNC(=O)COCCOCCNC(=O)CC[C@H](NC(=O)CC[C@H](NC(=O)CCCCCCCCCCCCCCCC(=O)O)C(=O)O)C(=O)O)C(=O)N[C@@H](Cc1ccccc1)C(=O)N[C@H](C(=O)N[C@@H](CC(N)=O)C(=O)N[C@@H](Cc1c[nH]c2ccccc12)C(=O)N[C@@H](CC(C)C)C(=O)N[C@@H](CC(C)C)C(=O)N[C@@H](C)C(=O)N[C@@H](CCC(N)=O)C(=O)N[C@@H](CO)C(=O)N1CCC[C@H]1C(=O)NCC(=O)O)C(C)C)[C@@H](C)CC` [Compound 126] (H-[NMeY][Aib]EGTFISDYSI[Aib]LDR[Aib]AQ[Aib]K([AEEA-AEEA-γGlu-γGlu-C17 diacid])FVNWLLAQSPG-OH), the solubility runs as follows: (pH 7.4) no less than 15 mg/mL; (pH 7.4, aqueous buffer) no less than 30 mg/mL. Compound `CC[C@H](C)[C@H](NC(=O)[C@H](Cc1ccccc1)NC(=O)[C@@H](NC(=O)CNC(=O)[C@H](CCC(=O)O)NC(=O)C(C)(C)NC(=O)[C@H](Cc1ccc(O)cc1)NC)[C@@H](C)O)C(=O)N[C@@H](CO)C(=O)N[C@@H](CC(=O)O)C(=O)N[C@@H](Cc1ccc(O)cc1)C(=O)N[C@@H](CO)C(=O)N[C@H](C(=O)NC(C)(C)C(=O)N[C@@H](CC(C)C)C(=O)N[C@@H](CC(=O)O)C(=O)N[C@@H](CCCNC(=N)N)C(=O)N[C@@H](CCCCNC(=O)COCCOCCNC(=O)COCCOCCNC(=O)CC[C@H](NC(=O)CC[C@H](NC(=O)CCCCCCCCCCCCCCCC(=O)O)C(=O)O)C(=O)O)C(=O)N[C@@H](C)C(=O)N[C@@H](CCC(N)=O)C(=O)NC(C)(C)C(=O)N[C@@H](CC(N)=O)C(=O)N[C@@H](Cc1ccccc1)C(=O)N[C@H](C(=O)N[C@@H](CC(N)=O)C(=O)N[C@@H](Cc1c[nH]c2ccccc12)C(=O)N[C@@H](CC(C)C)C(=O)N[C@@H](CC(C)C)C(=O)N[C@@H](C)C(=O)N[C@@H](CCC(N)=O)C(=O)N[C@@H](CO)C(=O)N1CCC[C@H]1C(=O)N[C@@H](CO)C(=O)N[C@@H](CO)C(=O)NCC(=O)N[C@@H](C)C(=O)N1CCC[C@H]1C(=O)N1CCC[C@H]1C(=O)N1CCC[C@H]1C(=O)N[C@@H](CO)C(N)=O)C(C)C)[C@@H](C)CC` [Compound 270] (H-[NMeY][Aib]EGTFISDYSI[Aib]LDRK([AEEA-AEEA-γGlu-γGlu-C17 diacid])AQ[Aib]NFVNWLLAQSPSSGAPPPS-NH2) displayed a solubility under setting [1] of no less than 7.5 mg/mL. For the compound `CC[C@H](C)[C@H](NC(=O)[C@H](CO)NC(=O)[C@H](Cc1ccc(O)cc1)NC(=O)[C@H](CC(=O)O)NC(=O)[C@H](CO)NC(=O)[C@@H](NC(=O)[C@H](Cc1ccccc1)NC(=O)[C@@H](NC(=O)CNC(=O)[C@H](CCC(=O)O)NC(=O)C(C)(C)NC(=O)[C@H](Cc1ccc(O)cc1)NC)[C@@H](C)O)[C@@H](C)CC)C(=O)N[C@@H](C)C(=O)N[C@@H](CCCCNC(=O)COCCOCCNC(=O)COCCOCCNC(=O)CC[C@H](NC(=O)CCCCCCCCCCCCCCCCC(=O)O)C(=O)O)C(=O)N[C@@H](CC(=O)O)C(=O)N[C@@H](CCCNC(=N)N)C(=O)N[C@H](C(=O)N[C@@H](Cc1c[nH]cn1)C(=O)N[C@@H](CCC(N)=O)C(=O)N[C@@H](CCC(N)=O)C(=O)N[C@@H](CC(N)=O)C(=O)N[C@@H](Cc1ccccc1)C(=O)N[C@H](C(=O)N[C@@H](CC(N)=O)C(=O)N[C@@H](Cc1c[nH]c2ccccc12)C(=O)N[C@@H](CC(C)C)C(=O)N[C@@H](CC(C)C)C(=O)N[C@@H](C)C(=O)N[C@@H](CCC(N)=O)C(=O)N[C@@H](CCCCN)C(=O)O)C(C)C)[C@@H](C)CC` [Compound 245] (H-[NMeY][Aib]EGTFISDYSIAK([AEEA-AEEA-γGlu-C18 diacid])DRIHQQNFVNWLLAQK-OH; C-terminus assumed), where the note is “pH 7.4, aqueous buffer”, the solubility was no less than 7.5 mg/mL. Same read-out and setting: with `CC[C@H](C)[C@H](NC(=O)[C@H](CO)NC(=O)[C@H](Cc1ccc(O)cc1)NC(=O)[C@H](CC(=O)O)NC(=O)[C@H](CO)NC(=O)[C@@H](NC(=O)[C@H](Cc1ccccc1)NC(=O)[C@@H](NC(=O)CNC(=O)[C@H](CCC(=O)O)NC(=O)C(C)(C)NC(=O)[C@H](Cc1ccc(O)cc1)NC)[C@@H](C)O)[C@@H](C)CC)C(=O)N[C@@H](C)C(=O)N[C@@H](CC(C)C)C(=O)N[C@@H](CC(=O)O)C(=O)N[C@@H](CCCNC(=N)N)C(=O)NC(C)(C)C(=O)N[C@@H](C)C(=O)N[C@@H](CCC(N)=O)C(=O)NC(C)(C)C(=O)N[C@@H](CCCCNC(=O)COCCOCCNC(=O)COCCOCCNC(=O)CC[C@H](NC(=O)CC[C@H](NC(=O)CCCCCCCCCCCCCCCCCCC(=O)O)C(=O)O)C(=O)O)C(=O)N[C@@H](Cc1ccccc1)C(=O)N[C@H](C(=O)N[C@@H](CC(N)=O)C(=O)N[C@@H](Cc1c[nH]c2ccccc12)C(=O)N[C@@H](CC(C)C)C(=O)N[C@@H](CC(C)C)C(=O)N[C@@H](C)C(=O)N[C@@H](CCC(N)=O)C(=O)N[C@@H](CCCNC(=N)N)C(N)=O)C(C)C` [Compound 272] (H-[NMeY][Aib]EGTFISDYSIALDR[Aib]AQ[Aib]K([AEEA-AEEA-γGlu-γGlu-C20 diacid])FVNWLLAQR-NH2) the figure was no less than 7.5 mg/mL. As to `CC[C@H](C)[C@H](NC(=O)[C@H](CCCCN)NC(=O)[C@H](CC(=O)O)NC(=O)[C@H](CC(C)C)NC(=O)C(C)(C)NC(=O)[C@@H](NC(=O)[C@H](CO)NC(=O)[C@H](Cc1ccc(O)cc1)NC(=O)[C@H](CC(=O)O)NC(=O)[C@H](CO)NC(=O)[C@@H](NC(=O)[C@H](Cc1ccccc1)NC(=O)[C@@H](NC(=O)CNC(=O)[C@H](CCC(=O)O)NC(=O)C(C)(C)NC(=O)[C@@H](N)Cc1ccc(O)cc1)[C@@H](C)O)[C@@H](C)CC)[C@@H](C)CC)C(=O)N[C@@H](CCCCNC(=O)COCCOCCNC(=O)COCCOCCNC(=O)CC[C@H](NC(=O)CCCCCCCCCCCCCCCCC(=O)O)C(=O)O)C(=O)N[C@@H](CCC(N)=O)C(=O)N[C@@H](C)C(=O)N[C@@H](CC(=O)O)C(=O)N[C@@H](Cc1ccccc1)C(=O)N[C@H](C(=O)N[C@@H](CC(N)=O)C(=O)N[C@@H](Cc1c[nH]c2ccccc12)C(=O)N[C@@H](CC(C)C)C(=O)N[C@@H](CC(C)C)C(=O)N[C@@H](C)C(=O)N[C@@H](CCC(N)=O)C(=O)N[C@@H](CCCNC(=N)N)C(=O)NCC(=O)O)C(C)C` [Compound 172] (H-Y[Aib]EGTFISDYSI[Aib]LDKIK([AEEA-AEEA-γGlu-C18 diacid])QADFVNWLLAQRG-OH), the solubility is, setting by setting: (pH 7.4) no less than 15 mg/mL; (pH 7.4, aqueous buffer) no less than 30 mg/mL. Consider `CC[C@H](C)[C@H](NC(=O)[C@H](CO)NC(=O)[C@H](Cc1ccc(O)cc1)NC(=O)[C@H](CC(=O)O)NC(=O)[C@H](CO)NC(=O)[C@@H](NC(=O)[C@H](Cc1ccccc1)NC(=O)[C@@H](NC(=O)CNC(=O)[C@H](CCC(=O)O)NC(=O)C(C)(C)NC(=O)[C@H](Cc1ccc(O)cc1)NC)[C@@H](C)O)[C@@H](C)CC)C(=O)N[C@@H](C)C(=O)N[C@@H](CC(C)C)C(=O)N[C@@H](CC(=O)O)C(=O)N[C@@H](CCCNC(=N)N)C(=O)N[C@@H](CCCCNC(=O)COCCOCCNC(=O)COCCOCCNC(=O)CC[C@H](NC(=O)CCCCCCCCCCCCCCCCC(=O)O)C(=O)O)C(=O)N[C@@H](C)C(=O)N[C@@H](CCC(N)=O)C(=O)NC(C)(C)C(=O)N[C@@H](CC(=O)O)C(=O)N[C@@H](Cc1ccccc1)C(=O)N[C@H](C(=O)N[C@@H](CC(N)=O)C(=O)N[C@@H](Cc1c[nH]c2ccccc12)C(=O)N[C@@H](CC(C)C)C(=O)N[C@@H](CC(C)C)C(=O)N[C@@H](C)C(=O)N[C@@H](CCC(N)=O)C(=O)N[C@@H](CCCNC(=N)N)C(=O)N1CCC[C@H]1C(=O)N[C@@H](CO)C(=O)N[C@@H](CO)C(=O)NCC(=O)N[C@@H](C)C(=O)N1CCC[C@H]1C(=O)N1CCC[C@H]1C(=O)N1CCC[C@H]1C(=O)N[C@@H](CO)C(N)=O)C(C)C` [Compound 23] (H-[NMeY][Aib]EGTFISDYSIALDRK([AEEA-AEEA-γGlu-C18 diacid])AQ[Aib]DFVNWLLAQRPSSGAPPPS-NH2), for which the solubility is no less than 30 mg/mL under setting [1] and no less than 15 mg/mL (pH 7.4, solubility in phosphate buffer at pH 7.4, 200 mM phosphate buffer pH 7.4).
